PubChem BioAssay (NCI)
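Growth conditions: 96-well plates. Treatment: test compound, 48 hours, 5 concentrations. Analysis: linear interpolation between bracketing concentrations; unreached endpoints set to highest concentration. GI50 marks 50% less growth. The concentration for full growth arrest is given as TGI.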

Columns and labels:
Assay in all cases: NCI anticancer screen, dose series, 48 h
OVCAR-3 ovarian = tested on: OVCAR-3 ovarian
HL-60(TB) leukemia = tested on: HL-60(TB) leukemia
TK-10 renal = tested on: TK-10 renal
SK-MEL-2 melanoma = tested on: SK-MEL-2 melanoma
MALME-3M melanoma = tested on: MALME-3M melanoma
COLO 205 colon = tested on: COLO 205 colon
CCRF-CEM leukemia = tested on: CCRF-CEM leukemia
A549 NSCLC = tested on: A549 NSCLC
HCT-116 colon = tested on: HCT-116 colon
K-562 leukemia = tested on: K-562 leukemia
SF-268 CNS = tested on: SF-268 CNS
SNB-75 CNS = tested on: SNB-75 CNS
NCI/ADR-RES ovarian = tested on: NCI/ADR-RES ovarian
NCI-H23 lung = tested on: NCI-H23 lung
NCI-H226 lung = tested on: NCI-H226 lung
UO-31 renal = tested on: UO-31 renal
HCC-2998 colon = tested on: HCC-2998 colon
BT-549 breast = tested on: BT-549 breast
HOP-62 NSCLC = tested on: HOP-62 NSCLC
HCT-15 colon = tested on: HCT-15 colon
SW-620 colon = tested on: SW-620 colon
ACHN renal = tested on: ACHN renal
UACC-62 melanoma = tested on: UACC-62 melanoma
A498 renal = tested on: A498 renal
SR leukemia = tested on: SR leukemia
SK-MEL-5 melanoma = tested on: SK-MEL-5 melanoma
OVCAR-4 ovarian = tested on: OVCAR-4 ovarian
SF-539 CNS = tested on: SF-539 CNS
RPMI-8226 leukemia = tested on: RPMI-8226 leukemia
DU-145 prostate = tested on: DU-145 prostate
HT29 colon = tested on: HT29 colon
OVCAR-5 ovarian = tested on: OVCAR-5 ovarian
MDA-MB-231 breast = tested on: MDA-MB-231 breast
CAKI-1 renal = tested on: CAKI-1 renal
NCI-H522 lung = tested on: NCI-H522 lung
MDA-MB-435 = tested on: MDA-MB-435
NCI-H460 lung = tested on: NCI-H460 lung
OVCAR-8 ovarian = tested on: OVCAR-8 ovarian
U251 CNS = tested on: U251 CNS
PC-3 prostate = tested on: PC-3 prostate
EKVX NSCLC = tested on: EKVX NSCLC
M14 melanoma = tested on: M14 melanoma
LOX IMVI melanoma = tested on: LOX IMVI melanoma
HOP-92 NSCLC = tested on: HOP-92 NSCLC
UACC-257 melanoma = tested on: UACC-257 melanoma
SNB-19 CNS = tested on: SNB-19 CNS
SF-295 CNS = tested on: SF-295 CNS
HS 578T breast = tested on: HS 578T breast
T-47D breast = tested on: T-47D breast
786-0 renal = tested on: 786-0 renal
MOLT-4 leukemia = tested on: MOLT-4 leukemia
IGROV1 ovarian = tested on: IGROV1 ovarian
MCF7 breast = tested on: MCF7 breast
SK-OV-3 ovarian = tested on: SK-OV-3 ovarian
KM12 colon = tested on: KM12 colon
RXF 393 renal = tested on: RXF 393 renal
SN12C renal = tested on: SN12C renal
SK-MEL-28 melanoma = tested on: SK-MEL-28 melanoma

Work on COc1cc(NC(=O)c2ccccc2Nc2ccnc(C(F)(F)F)c2)cc(OC)c1OC yielded a GI50 (OVCAR-3 ovarian) of 22.4 µM, a TGI (OVCAR-3 ovarian) greater than 100 µM and a GI50 (HL-60(TB) leukemia) of 44.3 µM. It also gave a TGI (HL-60(TB) leukemia) greater than 100 µM, a GI50 (TK-10 renal) of 72.3 µM and a TGI (TK-10 renal) greater than 100 µM. It also gave a GI50 (SK-MEL-2 melanoma) of 51.1 µM, a TGI (SK-MEL-2 melanoma) greater than 100 µM and a GI50 (MALME-3M melanoma) of 82.2 µM. It also gave a TGI (MALME-3M melanoma) greater than 100 µM, a GI50 (COLO 205 colon) of 41.9 µM and a TGI (COLO 205 colon) greater than 100 µM. It also gave a GI50 (CCRF-CEM leukemia) of 50.7 µM, a TGI (CCRF-CEM leukemia) greater than 100 µM and a GI50 (A549 NSCLC) of 58.1 µM. It also gave a TGI (A549 NSCLC) greater than 100 µM, a GI50 (HCT-116 colon) of 49.6 µM and a TGI (HCT-116 colon) greater than 100 µM. For the same compound, the GI50 (K-562 leukemia) was 52.8 µM, the TGI (K-562 leukemia) was greater than 100 µM and the GI50 (SF-268 CNS) was greater than 100 µM. The TGI (SF-268 CNS) was greater than 100 µM, the GI50 (SNB-75 CNS) was 34.8 µM and the TGI (SNB-75 CNS) was greater than 100 µM. The GI50 (NCI/ADR-RES ovarian) was 32.3 µM, the TGI (NCI/ADR-RES ovarian) was greater than 100 µM and the GI50 (NCI-H23 lung) was 44 µM. It also gave a TGI (NCI-H23 lung) greater than 100 µM, a GI50 (NCI-H226 lung) of 77.7 µM and a TGI (NCI-H226 lung) greater than 100 µM. The GI50 (UO-31 renal) was 19.8 µM, the TGI (UO-31 renal) was 92.1 µM and the GI50 (HCC-2998 colon) was 88.3 µM. It also gave a TGI (HCC-2998 colon) greater than 100 µM, a GI50 (BT-549 breast) of 43.5 µM and a TGI (BT-549 breast) greater than 100 µM. The GI50 (HOP-62 NSCLC) was 88.9 µM, the TGI (HOP-62 NSCLC) was greater than 100 µM and the GI50 (HCT-15 colon) was 56.1 µM. The TGI (HCT-15 colon) was greater than 100 µM, the GI50 (SW-620 colon) was greater than 100 µM and the TGI (SW-620 colon) was greater than 100 µM. It also gave a GI50 (ACHN renal) of 99.9 µM, a TGI (ACHN renal) greater than 100 µM and a GI50 (UACC-62 melanoma) of 36.8 µM. For the same compound, the TGI (UACC-62 melanoma) was greater than 100 µM, the GI50 (A498 renal) was 26.6 µM and the TGI (A498 renal) was greater than 100 µM. For the same compound, the GI50 (SR leukemia) was 47.3 µM, the TGI (SR leukemia) was greater than 100 µM and the GI50 (SK-MEL-5 melanoma) was 25.4 µM. For the same compound, the TGI (SK-MEL-5 melanoma) was greater than 100 µM, the GI50 (OVCAR-4 ovarian) was 30.6 µM and the TGI (OVCAR-4 ovarian) was greater than 100 µM. The GI50 (SF-539 CNS) was greater than 100 µM, the TGI (SF-539 CNS) was greater than 100 µM and the GI50 (RPMI-8226 leukemia) was 36.3 µM. The TGI (RPMI-8226 leukemia) was greater than 100 µM, the GI50 (DU-145 prostate) was 95.4 µM and the TGI (DU-145 prostate) was greater than 100 µM. For the same compound, the GI50 (HT29 colon) was 65 µM, the TGI (HT29 colon) was greater than 100 µM and the GI50 (OVCAR-5 ovarian) was greater than 100 µM. For the same compound, the TGI (OVCAR-5 ovarian) was greater than 100 µM, the GI50 (MDA-MB-231 breast) was greater than 100 µM and the TGI (MDA-MB-231 breast) was greater than 100 µM. It also gave a GI50 (CAKI-1 renal) of 50.4 µM, a TGI (CAKI-1 renal) greater than 100 µM and a GI50 (NCI-H522 lung) of 38.2 µM. The TGI (NCI-H522 lung) was greater than 100 µM, the GI50 (MDA-MB-435) was 63.3 µM and the TGI (MDA-MB-435) was greater than 100 µM. For the same compound, the GI50 (NCI-H460 lung) was 69.6 µM, the TGI (NCI-H460 lung) was greater than 100 µM and the GI50 (OVCAR-8 ovarian) was 69.6 µM. For the same compound, the TGI (OVCAR-8 ovarian) was greater than 100 µM, the GI50 (U251 CNS) was 82.7 µM and the TGI (U251 CNS) was greater than 100 µM. It also gave a GI50 (PC-3 prostate) of 35.3 µM, a TGI (PC-3 prostate) greater than 100 µM and a GI50 (EKVX NSCLC) of 48.3 µM. It also gave a TGI (EKVX NSCLC) greater than 100 µM, a GI50 (M14 melanoma) of 73.3 µM and a TGI (M14 melanoma) greater than 100 µM. It also gave a GI50 (LOX IMVI melanoma) of 75.6 µM, a TGI (LOX IMVI melanoma) greater than 100 µM and a GI50 (HOP-92 NSCLC) of 23.2 µM. For the same compound, the TGI (HOP-92 NSCLC) was 74.1 µM, the GI50 (UACC-257 melanoma) was 88.2 µM and the TGI (UACC-257 melanoma) was greater than 100 µM. It also gave a GI50 (SNB-19 CNS) of 77.1 µM, a TGI (SNB-19 CNS) greater than 100 µM and a GI50 (SF-295 CNS) of 41.9 µM. It also gave a TGI (SF-295 CNS) greater than 100 µM, a GI50 (HS 578T breast) of 58.8 µM and a TGI (HS 578T breast) greater than 100 µM. It also gave a GI50 (T-47D breast) of 17.7 µM, a TGI (T-47D breast) of 91.9 µM and a GI50 (786-0 renal) greater than 100 µM. It also gave a TGI (786-0 renal) greater than 100 µM, a GI50 (MOLT-4 leukemia) of 36.9 µM and a TGI (MOLT-4 leukemia) greater than 100 µM. It also gave a GI50 (IGROV1 ovarian) of 35.1 µM, a TGI (IGROV1 ovarian) of 89.7 µM and a GI50 (MCF7 breast) of 37.1 µM. The TGI (MCF7 breast) was greater than 100 µM, the GI50 (SK-OV-3 ovarian) was greater than 100 µM and the TGI (SK-OV-3 ovarian) was greater than 100 µM. The GI50 (KM12 colon) was 54.9 µM, the TGI (KM12 colon) was greater than 100 µM and the GI50 (RXF 393 renal) was greater than 100 µM. For the same compound, the TGI (RXF 393 renal) was greater than 100 µM, the GI50 (SN12C renal) was 52.9 µM and the TGI (SN12C renal) was greater than 100 µM. The GI50 (SK-MEL-28 melanoma) was greater than 100 µM and the TGI (SK-MEL-28 melanoma) was greater than 100 µM.
